From US6265423A, “Aromatic polycyclic retinoid-type derivatives, method for preparing same, and use thereof for making pharmaceutical and cosmetic compositions” (priority 1996, dated 2001) come the findings set out here.

Test [1] concerns human mammary tumoral lineage T-47D. As to the kind of experiment: Clonogenic test (soft agar), growth of cellular colonies. The test is classed as cell-based. As to conditions: T-47D; for mean number of cellular colonies in relation to control / activity at 0.1 µM / activity at 0.01 µM / activity at 0.001 µM / activity at 0.0001 µM: 21 days, control = 100%; for activity at 0.1 µM / activity at 0.01 µM / activity at 0.001 µM / activity at 0.0001 µM: Homo sapiens, T47D, 504 h, read-out: mean number of cellular colonies in relation to control; for activity at 0.1 µM: 10^-7 M; for effect on growth of cellular colonies (in words): soft agar. The text has this:
The human tumour stem cells are the clonogenic cells which are the origin of the neoplasic cells which constitute a given tumour. These tumour stem cells are responsible for the recidivism process observable after surgical resection of the primary tumours and are also responsible for the formation of metastases. […] At the level of a tumour or of a tumoral cellular lineage, these clonogenic stem cells distinguish themselves from other clonogenic cells of the tumour or of the neoplasic cellular lineage being considered, by the fact that they preserve their ability to proliferate in the absence of any solid support.
This technique is suitable for the culturing in vitro of most of the tumours and tumoral cellular lineages of various histological types. In the context of this test, the neoplastic cells are cultured on a semi-solid culture medium "soft agar" made up of a mixture of agar and agarose. On this selective support, only tumoral stem cells survive and proliferate. […] The morphological characteristics and the growth of the cellular colonies are also a function of the histological type of the tumours being considered.
These culture conditions are also called "anchorage-independent" conditions.
The base medium "MEM 25 MM HEPES" (Minimum Essential Medium, Life Technologies, Belgium) contains Eagle salts but no L-glutamine. This medium is well suited to the growth of a range of varied diploid cells or primary mammal cells. To this medium is then added:
The tumoral cells are maintained in culture in 25 cm^2 falcon dishes (Life Technologies, Belgium). They are then trypsinised and individualised. Their rate of viability is determined by coloration with trypan blue (Sigma, Belgium). It must be greater than 90%. In the case where this condition is kept to, a cellular suspension at the desired concentration is prepared in a solution of agar at 0. 3%. The cells are then seeded between two layers of agar (Sigma, Belgium) and in 35 mm Petri dishes (Life Technologies, Belgium). The base layer is made up of a 0.5% solution of agar and the top layer is made up of a 0.3% solution of agar. The cupules are then positioned and held in an incubator at 37° C. and 5% of CO2. […] After treatment, the cupules are kept in the incubator for 21 days. It is advisable to examine, during the course of the experiment, the appearance and the increase of the cellular colonies. If after 10 days, no colony appears or is developing, the experiment must be repeated. In the contrary case, on the 21st day, 100 μl of an MTT solution (3-(4,5-dimethylthiazol-2-yl)-2,5 diphenyl tetrazolium bromide; Sigma, Belgium) dissolved in the RPMI culture medium (Roswell park Memorial Institute, Life Technologies, Belgium), at the concentration of 1 mg/ml are deposited on the top layer of the group of cupules. The cells are kept in contact with this solution for a minimum of 3 hours at 37° C.
Using an inverted microscope at low magnification, the number of clones whose surface area is greater thar. 100 μm^2 is determined for the group of cupules representing all the different experimental conditions. Then, for each of these experimental conditions, the mean number of cellular colonies±the standard error on the mean (ESM) is calculated.
The mean number of cellular colonies determined for each experimental condition is expressed as a percentage in relation to the control condition made equal to 100%.

The test system of test [2] is ZR-75-1 human mammary cancer cells. The test can be described thus: MTT test, proliferation of ZR-75-1. The test is classed as cell-based. Particulars: Homo sapiens, 72 h, control = 100%, read-out: level of proliferation; for activity at 100 µM: ZR-75-1, 10^-4 M; for activity at 1 µM: ZR-75-1, 10^-6 M; for activity at 0.01 µM: ZR-75-1, 10^-8 M. The protocol:
(§1) The cells that were cultured came from the ATCC (American Type Culture Collection).
(§2) The cellular lines are kept in culture in a monolayer at 37° C. in closed culture dishes (Nunc. Gibco BRL, Life Technologies, Belgium) containing the minimum essential medium (MEM, Gibco) supplemented with 5% of Foetal Calf Serum, (FCS, Gibco), 0.6 mg/ml of glutamine (Gibco) and a mixture of 200 IU/mi of penicillin (Gibco), 200 μg/ml of streptomycin (Gibco) and 0.1 mg/ml of gentamycin (Gibco). The foetal calf serum is decomplemented for 1 hour at 56° C.
(§3) This test is based on the mitochondrial reduction by living metabolically active cells of the MTT (3-(4,5-dimethylthiazol-2-yl)-2,5-diphenyltetrazolium bromide) of yellowish colour into a blue coloured product, formazan. The quantity of formazan obtained is directly proportional to the number of living cells. After incubation of the cells for 24 hours in microplates with 96 flat bottomed wells, the culture medium is replaced by 100 μl of fresh culture medium containing the drug to be tested.
(§4) The microplates are then incubated for 3 hours at 37° C. and centrifuged for 10 minutes at 400 g (GPR centrifuge, Beckman). The MTT solution is replaced by 100 μl of dimethylsulphoxide (Merck). The microplates are agitated (Vari-Shaker, Dynatech) for 10 minutes.
(§5) In the microplates, the control cells like the treated cells were incubated in a medium without the compounds to be tested for 24 hours. The control cells are incubated in a medium without a drug throughout the whole experiment, while the treated cells are incubated in different media. These media contain the molecule to be tested at various concentrations: 10^-8 M, 10^-6 M and 10^-4 M. All the tests are carried out in 6 duplicates.
(§6) The statistical comparisons are carried out according to the Fisher Test:
(§7) The mean optical density measured for each experimental condition is expressed as a percentage in relation to the laid down control condition being equal to 100%.
On the technique in general: Formazan colour is commonly taken as a measure of viable cells.

Test [3] concerns T-47D human mammary cancer cells. As to the kind of experiment: MTT test, proliferation of T-47D. The test is classed as cell-based. As to conditions: Homo sapiens, T47D, T-47D, 72 h, control = 100%, read-out: level of proliferation; for activity at 100 µM: 10^-4 M; for activity at 1 µM: 10^-6 M; for activity at 0.01 µM: 10^-8 M. The protocol: as §1, §2, §3, §4, §5, §6, §7

The test system of test [4] is A-427 human pulmonary cancer cells. The test can be described thus: MTT test, proliferation of A-427. Particulars: Homo sapiens, A-427, 72 h, read-out: level of proliferation.
In test [5] the test system is A549 human pulmonary cancer cells. As to the kind of experiment: MTT test, proliferation of A549. The test is classed as cell-based. As to conditions: Homo sapiens, 72 h, control = 100%, read-out: level of proliferation; for activity at 100 µM: A549, 10^-4 M; for activity at 1 µM: A549, 10^-6 M; for activity at 0.01 µM: A549, 10^-8 M.

On to `Cc1cc2c(cc1/C=C1/CCc3cc(-c4nnn[nH]4)ccc31)C(C)(C)CCC2(C)C` [CB02981], for which the “mean number of cellular colonies in relation to control” value in test [1] (10^-8 M, 0.01 µM) was found to be 48.8 ± 5.3%; in test [1] (10^-9 M, 0.001 µM), 67.6 ± 8.9%; in test [1] (10^-10 M, 0.0001 µM) it was 80.1 ± 13.2%.
Consider `CC1=C(/C=C/C(C)=C/C=C/C(C)=C/C(=O)Nc2ccc(O)cc2)C(C)(C)CCC1` [CB05764, reference compound], for which, in test [2], the activity at 100 µM worked out at 0.6%, the activity at 1 µM is 81.9% and the activity at 0.01 µM stood at 97.3%. Further, in test [3], the activity at 100 µM was found to be 0%, the activity at 1 µM was determined as 66.4% and the activity at 0.01 µM turned out to be 82.5%. Moreover, in test [1], the activity at 0.1 µM turned out to be 18.8% and the “effect on growth of cellular colonies (in words)” value is listed as “strongly active at concentration 10^-7 M loses its significant inhibiting activity beyond the concentration of 10^-9 M”. Further, in test [1] (10^-8 M), the activity at 0.01 µM is 33.6%. The activity at 0.001 µM in test [1] (10^-9 M) turned out to be 83.3%. Moreover, the activity at 0.0001 µM in test [1] (10^-10 M) was found to be 80.3%.
As to `Cc1cc2c(cc1/C=C1\CCc3cc(C(=O)O)ccc31)C(C)(C)CCC2(C)C` [CB40341], the “mean number of cellular colonies in relation to control” value worked out at 65.6 ± 9.5% in test [1] (10^-8 M, 0.01 µM); 90.8 ± 0.8% in test [1] (10^-9 M, 0.001 µM); 99.1 ± 9.7% in test [1] (10^-10 M, 0.0001 µM).
As to `CC/C(=C(\c1ccccc1)c1ccc(OCCN(C)C)cc1)c1ccccc1` [CB58707, tamoxifen, reference compound], in test [1], the activity at 0.1 µM is 31.3% and the “effect on growth of cellular colonies (in words)” value is “significant inhibition in the growth of these colonies but its activity is not dose dependent”. Besides, in test [1] (10^-8 M), the activity at 0.01 µM turned out to be 46.9%. The activity at 0.001 µM in test [1] (10^-9 M) was 35.5%. The activity at 0.0001 µM in test [1] (10^-10 M) is 56.7%.
For the compound `C/C(=C/c1cc2c(cc1C)C(C)(C)CCC2(C)C)c1ccc(-c2nnn[nH]2)cc1` [CB61692], the activity at 100 µM worked out at 0% in test [2], 0.6% in test [4], 0% in test [5] and 0% in test [3]. Further, the activity at 1 µM in test [2] turned out to be 89.5%; in test [4], 107%; in test [5] it was 98.2%; in test [3], 93.8%. In addition, the activity at 0.01 µM came to 93.2% in test [2]; 105% in test [4]; 106% in test [5]; 106% in test [3]; 55.7 ± 2.6% in test [1] (10^-8 M). The activity at 0.001 µM in test [1] (10^-9 M) worked out at 41.5 ± 5.7%. Also, the activity at 0.0001 µM in test [1] (10^-10 M) is 90.3 ± 4.7%.
Turning to `Cc1cc2c(cc1/C=C(\c1ccc(-c3nnn[nH]3)cc1)C(F)(F)F)C(C)(C)CCC2(C)C` [CB63237, (E) 5-[4-[1-trifluoromethyl-2-(5,6,7,8-tetrahydro-3,5,5,8,8-pentamethyl-2-naphthalenyl)-1-ethenyl]phenyl]-1H-tetrazole], the activity at 100 µM is 0% in test [2], 4.1% in test [4], 2.1% in test [5] and 4.1% in test [3]. For the same compound, the activity at 1 µM in test [2] was found to be 106%; in test [4], 148%; in test [5], 140%; in test [3], 125%. The activity at 0.01 µM in test [2] came out at 86.5%; in test [4], 88.1%; in test [5], 124%; in test [3], 120%.
As for `CCCCCCCOc1cc2c(cc1/C(C)=C/c1ccc(C(=O)O)cc1)C(C)(C)CCS2(=O)=O` [CB65757], the activity at 100 µM was 1% in test [2], 0% in test [4], 0% in test [5] and 0% in test [3]. Besides, the activity at 1 µM in test [2] was 118%; in test [4] it was 146%; in test [5] it was 111%; in test [3], 126%. For the same compound, the activity at 0.01 µM worked out at 116% in test [2], 106% in test [4], 108% in test [5] and 124% in test [3].
On to `C/C(=C/c1ccc2c(c1)C(C)(C)CCS2(=O)=O)c1ccc(C(=O)O)cc1` [CB72484], for which the activity at 100 µM in test [2] was found to be 129%; in test [4], 182%; in test [5], 129%; in test [3], 99%. Besides, the activity at 1 µM turned out to be 138% in test [2], 130% in test [4], 111% in test [5] and 128% in test [3]. Also, the activity at 0.01 µM in test [2] turned out to be 145%; in test [4] it was 131%; in test [5], 114%; in test [3], 129%.
In the case of `COc1cc2c(cc1/C(C)=C/c1ccc(C(=O)O)cc1)C(C)(C)CCS2(=O)=O` [CB77787], the activity at 100 µM in test [2] amounted to 93.5%; in test [4], 163%; in test [5] it was 103%; in test [3], 86.3%. Further, the activity at 1 µM in test [2] is 113%; in test [4], 110%; in test [5], 125%; in test [3], 120%. In addition, the activity at 0.01 µM in test [2] is 114%; in test [4], 120%; in test [5] it was 118%; in test [3] it was 129%.
